In patent US11331291B2, “Method of and improved composition for treating triterpene-responsive conditions, diseases or disorders” (PHOENIX BIOTECHNOLOGY, INC., priority 2017, dated 2022):
Like-named read-outs stand apart in the source and are kept apart here.

Columns and labels:
[1] = system: primary corticalstriatal neuronal co-cultures containing glia; format: cell-based
Description: FIGS. 6A, 6B, 7A, 7B, 8A, and 8B depict the results of comparative cellular toxicities of the triterpenes to primary corticalstriatal neuronal co-cultures containing glia evaluated according to the example below: ursolic acid (FIGS. 6A, 6B), betulinic acid (FIGS. 7A, 7B) and oleanolic acid (FIGS. 8A, 8B). For FIGS. 6A, 7A and 8A, propidium iodide was added for one hour then the numbers of PI-positive cells were scored under automated high-content analysis on the Cellomics ArrayScan VTI. For FIGS. 6B, 7B and 8B, MTS substrate was added for two hours then co-culture wells were measured for absorbance at 450 nm using a multi-well plate reader.
We determined whether the reduced neuroprotective activity of Compositions I and II might be due to cellular toxicity of one or more of the individual triterpenes. We conducted a direct study of the cellular toxicities of oleanolic acid (OA), ursolic acid (UA), and betulinic acid (BA) using two independent measures of cell death: propidium iodide (PI) staining for nuclear breakdown and the MTS assay for cell metabolic activity. […] The MTS assay is a well-based assay in which cleavage of a tetrazolium reporter by mitochondrial enzymes produces colorimetric readout and reports relative numbers of healthy cells.

[2] = system: ARE target genes (Srx, Hmox1); test: ARE gene expression qPCR in rat primary corticostriatal co-cultures; format: cell-based
Description: FIG. 3 (prior art: Van Kanegan: vide supra) depicts the results of ARE gene expression assays for Fraction 0-4 and the individual triterpenes oleanolic acid, ursolic acid, betulinic acid and uvaol (also referred to as uvalol). “X” symbols denote concentrations of compounds which induced toxicity and for which recovery of residual mRNA was insufficient to support qPCR analysis. Rat primary corticostriatal co-cultures were treated for 6 h with Fraction 0-4 (in μg/ml) or oleanolic acid, ursolic acid, betulinic acid, or uvaol (all in μM) at the concentrations indicated, then harvested and processed for qPCR analysis of the ARE target genes shown. Quantitative RNA values were normalized to the GAPDH reference control and fold-expression changes are expressed relative to the DMSO-carrier only condition (“--”) set to a value of 1. Dark bars denote statistically significant differences with respect to the DMSO-carrier only control by a Student's t-test at p<0.05.
FIG. 4 depicts the results of expression assays for Fraction 0-4 and the individual triterpenes ursolic acid and betulinic acid at more closely-spaced concentration ranges. Rat primary corticostriatal co-cultures were treated for 6 h with Fraction 0-4 (in μg/ml) or ursolic acid and betulinic acid (in μM) at the concentrations indicated, then harvested and processed for qPCR analysis of the ARE target genes shown. Quantitative RNA values were normalized to the GAPDH reference control and fold-expression changes are expressed relative to the DMSO-carrier only condition (“--”) set to a value of 1. Dark blue bars denote statistically significant differences with respect to the DMSO-carrier only control by a Student's t-test at p<0.05.
FIGS. 10A and 10B depict the results of comparative Srx (FIG. 10A) and Hmox1 (FIG. 10B) expression assays for PBI-05204, PBI-04711 (also referred to as Fxn 0-4), oleanolic acid (O), ursolic acid (U), betulinic acid (B) and combinations of the triterpenes present at the specified molar ratios. Quantitative RNA values were normalized to the GAPDH reference control and fold-expression changes are shown relative to the DMSO-carrier only condition set to a value of 1. Dark blue bars denote statistically significant differences with respect to the DMSO-carrier only control by a Student's t-test at p<0.05. Striped, red bars denote conditions which induced excessive levels of ARE gene expression, namely, by more than 10-fold.
For qPCR quantification of ARE target gene expression levels, cortical and striatal neurons were plated onto 96-well plates containing mature glial cultures and cultured for 96 h. Composition was added to cultures at the indicated concentrations for 6 h. At the end of the treatment period, cells were lysed and total RNA was isolated using Absolutely RNA mini-prep kits (Agilent Technologies/Stratagene). cDNA was generated using oligo dT primers and Superscript II reverse transcriptase (Invitrogen). Resulting cDNA was used for quantitative PCR of gene transcripts using SYBR Green Real-Time PCR Master Mix (Life Technologies) and the following mouse primers, for: Gcic (forward-5′ […]-3′ (SEQ ID NO. 1) and reverse-5′-[…]-3′) (SEQ ID NO. 2), Ngo1 (forward-5′-GCCCGCATGCAGATCCT-3′ (SEQ ID NO. 3) and reverse 5′-[…]3′) (SEQ ID NO. 4), Srx (forward-5′-[…]-3′ (SEQ ID NO. 5) and reverse-5′-[…]-3′) (SEQ ID NO. 6), and Hmox1 (forward-5′-[…]-3′ (SEQ ID NO. 7) and reverse-5′-[…]-3′) (SEQ ID NO. 8) (Integrated DNA Technologies). […]

[3] = system: ARE target genes (Srx, Hmox1); settings: 6 h; prior art FIG. 3; compared among UA, BA, OA; cited from earlier work
[4] = system: cortical pyramidal neurons; settings: prior art FIG. 5; equimolar basis; cited from earlier work

Compound | concentration leading to 50% loss of metabolic activity [1] [µM] | cellular toxicity ([2]; even at low concentration) | ARE gene expression induction ([2]; single agent, any concentration tested, FIGS. 10A, 10B) | inducing ARE gene expression as single agent [3] | neuroprotective activity of individual triterpenes in OGD assay [4] | cellular toxicity [2] | upregulation of Srx and Hmox1 ([2]; 6 h, closely-spaced concentrations, FIG. 4) | ARE gene expression induction (Srxn1) ([2]; single agent at 9 μM, relative to DMSO) [fold]
C=C(C)[C@@H]1CC[C@]2(C(=O)O)CC[C@]3(C)[C@H](CC[C@@H]4[C@@]5(C)CC[C@H](O)C(C)(C)[C@@H]5CC[C@]43C)[C@@H]12 [BA, betulinic acid] | 5 to 15 | caused cellular toxicity | – | – | – | – | – | –
CC1(C)CC[C@]2(C(=O)O)CC[C@]3(C)C(=CC[C@@H]4[C@@]5(C)CC[C@H](O)C(C)(C)[C@@H]5CC[C@]43C)[C@@H]2C1 [OA, oleanolic acid] | – | – | not able to induce appreciable ARE gene expression | relatively inactive | higher activity than UA | – | – | –
C[C@H]1[C@H](C)CC[C@]2(C(=O)O)CC[C@]3(C)C(=CC[C@@H]4[C@@]5(C)CC[C@H](O)C(C)(C)[C@@H]5CC[C@]43C)[C@H]12 [UA, ursolic acid] | 5 to 15 | – | – | considerably more potent | variable activity | caused cellular toxicity | clear upregulation | > 10
